Like-named read-outs stand apart in the source and are kept apart here.
Experiments:
[1] = test system: L-ferritin and transferrin receptor genes; assay: RT-qPCR of iron metabolism genes in Caco-2 cells; format: cell-based, human; details: Caco-2 in proliferative phase, 10 micromoles per liter, 72 hours
Procedure: After treatment for 72 hours of the Caco-2 cells in proliferative phase by the Quilamine HQ1-44 and ICL670 in a concentration of 10 micromoles per liter, an analysis is carried out by real-time polymerase chain reaction (RT-qPCR) technique of the expression of the two main genes for regulating intra-cell iron metabolism, that of L-ferritin, the iron-storing protein, and that of the transferrin receptor, which is the iron-importing protein of the membrane. The DNAc (complementary dioxyribonucleic acid) synthesized during the reverse transcription are amplified by the qPCR (quantity of polymerization chain reaction) to quantify the expression of the mNRA (messenger ribonucleic acid) of the genes involved in iron metabolism.

[2] = test system: wild cell line (CHO) of hamster ovarian cells; assay: Anti-proliferative effect on CHO cells, counting of cell nuclei (Hoechst 33342); format: cell-based; details: CHO
Procedure: The in vitro efficacy of different Quilamines was tested on a wild cell line (CHO) of hamster ovarian cells having PTS and a mutant cell line CHO-MG without PTS. The two cell types CHO and CHO-MG were treated, 24 hours after being seeded in 96-well microplates, by concentrations of different Quilamines ranging from 0.1 to 400 micromoles per liter. The cytostatic (anti-proliferative) effects and cytotoxic effects of Quilamine after 72 hours' treatment of the cells were assessed respectively by counting cell nuclei after DNA marking by the Hoechst 33342 fluorescent intercalant dye and by analysis of membrane damage detected by the dosing of the lactate dehydrogenase activity (LHD) in the supernatants.
The IC50 inhibitor concentration corresponding to the concentration in Quilamines enables the inhibition at 50% of the cell proliferation was deduced from the dose-effect curves of numeration of the nuclei of the living cells on the CHO and CHO-MG cell lines. […] The lower the value of IC50, the greater the efficiency of the anti-proliferative effect of the tested chelators.
A comparison was made of the cytostatic or anti-proliferative action and the cytotoxic action for 72 h of treatment by Quilamine HQ1-44 and 8-hydroxyquinoline and ICL670, on the CHO cell lines in the presence and without the presence of exogenous iron, in the form of Fe(III) citrate in a concentration of 20 micromoles per liter. The results obtained are shown in FIG. 4, FIG. 4A relating to the results on cell viability and FIG. 4B relating to the results on cell toxicity.

Caco-2 cells [3] = assay: LC/MSMS of intra-cell polyamines in Caco-2 cells; format: cell-based, human; details: proliferating Caco-2, 10 micromoles per liter, 72 hours
Procedure: After treatment for 72 hours of the Caco-2 cells, in proliferative phase by Quilamine HQ1-44 and ICL670 in a concentration of 10 micromoles per liter, a biochemical analysis is carried out by tandem mass spectrometry coupled with liquid chromatography (LC/MSMS) of the intra-cell polyamines such as putrescine, spermidine and spermine, after dansylation.

Caco-2 cells [4] = assay: Biochemical analysis of intra-cell iron, L-ferritin and transferrin soluble receptor in Caco-2 cells; format: cell-based, human; details: 72 hours; for intra-cell iron and L-ferritin concentrations: Caco-2, 10 micromoles per liter; for transferrin-soluble receptor: Caco-2 supernatant, 10 micromoles per liter
Procedure: After treatment for 72 hours of the Caco-2 cells in proliferative phase by Quilamine HQ1-44 and ICL670, biochemical analysis is carried out on the intra-cell iron (Fe2+ and Fe3+), of the two main proteins for regulating iron metabolism by the dosing of the intra-cell concentrations in L-ferritin, the iron storage protein, as well as the analysis of the transferrin soluble receptor the cell supernatant, which is a marker of the concentration in transferrin receptor, the iron importing protein of the membrane.

[5] = test system: mutant cell line CHO-MG without PTS; assay: Anti-proliferative effect on CHO-MG cells without PTS, counting of cell nuclei; format: cell-based, hamster; details: for IC50: 72 h treatment; for Ratio IC50 (CHO-MG/CHO): selectivity of recognition by the PTS
Description: The IC50 inhibitor concentration corresponding to the concentration in Quilamines enables the inhibition at 50% of the cell proliferation was deduced from the dose-effect curves of numeration of the nuclei of the living cells on the CHO and CHO-MG cell lines. These dose-effect curves are sometimes bi-phase curves as in the case of Quilamine HQ1-44 which has an anti-proliferative constituent (without concomitant release of LDH in supernatant) in the range of concentrations of 0.4 to 3 micromoles per liter and a second cytotoxic constituent accompanied by membrane toxicity expressed by the release of LDH for concentrations of over […]. The lower the value of IC50, the greater the efficiency of the anti-proliferative effect of the tested chelators.
Furthermore, the ratio of the IC50 inhibitor concentrations found for the CHO-MG and the CHO cell lines (Ratio IC50 (CHO-MG/CHO)) was computed for several Quilamines according to the invention. This ratio makes it possible to estimate the selectivity of recognition of the different chelators by the PTS: the higher the ratio, the more clearly is the chelator recognized by the PTS. When this ratio is close to 1, the tested chelator is not recognized or is little recognized by the PTS.

HepG2 cells = assay: Cytotoxic effect on HepG2 cells, LDH release; format: cell-based, human; details: for influence of exogenous iron on the cytotoxic effect: HepG2, presence of exogenous iron
Procedure: The implication of PTS in the cytostatic and cytotoxic action of Quilamines was analyzed in proliferating HepG2 hepatocyte tumor cells after activation of PTS or competitive inhibition of PTS by spermidine, a polyamine naturally present in the organism and most efficaciously captured by the PTS. The conditions of treatment by Quilamines are identical to those described in paragraph III-1.
Inhibiting ornithine decarboxylase (ODC), the key enzyme in the biosynthesis of polyamines, causes a depletion of intra-cell polyamines and an activation of PTS which enables the deficiency to be met. This activation of PTS is done by means of the ODC inhibitor, alpha-difluoromethyl ornithine (DFMO).
The competitive inhibition of PTS by spermidine is prompted by the co-treatment of the cells by the Quilamines in the presence of spermidine, in a concentration of 50 micromoles per liter.

Caco-2 cells [6] = assay: Cell viability of proliferating Caco-2 cells (number of nuclei); format: cell-based, human; details: for Constituent 1 (1-10 μM) % cell / Constituent 2 (10-100 μM) % cell: Caco-2 J4, no exogenous iron; for IC50: Homo sapiens, no exogenous iron
Procedure: The action of Quilamines on the cell viability was analyzed on enterocyte cells of the Caco-2 tumor cell line derived from human colon carcinoma and compared with the action of ICL670 in the presence or absence of exogenous iron, after activation (DFMO) or competitive inhibition by spermidine, of the PTS. The operating conditions used are identical to those used for CHO/CHO-MG and HepG2 cells.
The results for the measurement of the anti-proliferative effect of Quilamines, and of ICL670 on the proliferating cells (cytostatic constituent) when there is no exogenous iron have been listed in the table 4 below.

[7] = Fe(III) citrate 20 micromoles per liter
[8] = 72 h treatment, no exogenous iron, read-out: IC50 CHO
[9] = Caco-2 J4, cytostatic constituent, read-out: Constituent 1 (1-10 μM) IC50
[10] = Caco-2 J4, cytotoxic constituent, read-out: Constituent 2 (10-100 μM) IC50

IC50 (Caco-2 cells [6]; [9]) [µM] | Compound | expression of the genes for L-ferritin and the transferrin receptor [1] | influence of exogenous iron on the cytostatic (anti-proliferative) effect [2, 7] | IC50 [2, 8] [µM] | change of intra-cell concentration of putrescine (Put) (Caco-2 cells [3]) [%] | change of intra-cell concentration of spermidine (Spd) (Caco-2 cells [3]) [%] | intra-cell iron and L-ferritin concentrations (Caco-2 cells [4]) | transferrin-soluble receptor (Caco-2 cells [4]) | IC50 ([5]; CHO-MG, 72 h) [µM] | Ratio IC50 (CHO-MG/CHO) [5] | influence of exogenous iron on the cytotoxic effect (HepG2 cells) | Constituent 1 (1-10 μM) % cell (Caco-2 cells [6]) [%] | Constituent 2 (10-100 μM) % cell (Caco-2 cells [6]) [%] | IC50 (Caco-2 cells [6]; [10]) [µM] | other results
1.3 | NCCCCNCCCCNCc1ccc2cccc(O)c2n1 [HQ1-44, 2-[4-(4-aminobutyl)aminobutyl]aminomethylquinolin-8-ol] | do not significantly modify | improvement | 1.4 | −73 | −55 | intra-cell iron depletion | no significant effect | 344 | 249 | partially inhibited | 70 | 30 | 20 | IC50 ([2]; Fe(III) citrate 20 micromoles per liter, 72 h, read-out: IC50 CHO in the presence of exogenous iron): 0.6 µM; effect on intra-cell spermine (Spm) (Caco-2 cells [3]): absence of an effect; IC50 [5]: 344 µM; influence of PTS activation by DFMO pre-treatment on cytotoxicity (HepG2 cells; HepG2, concentrations greater than 50 micromoles per liter (50-100)): amplification; influence of competitive inhibition of PTS by spermidine on the cytotoxic effects (HepG2 cells; HepG2, spermidine 50 micromoles per liter, Quilamine 50 to 100 micromoles per liter): inhibition
1.7 | O=C(O)c1ccc(-n2nc(-c3ccccc3O)nc2-c2ccccc2O)cc1 [ICL670, reference compound] | do not significantly modify | inhibition | 9.2 | −34 | −15 | intra-cell iron depletion | no significant effect | 8 | 1 | inhibition | 18 | 82 | 90 | concentration of the cytotoxic constituent associated with release of LDH (HepG2 cells; HepG2, absence of exogenous iron): over 10 micromoles per liter; influence of exogenous iron on the cytostatic effect (Caco-2 cells [6]; Caco-2, after addition of exogenous iron): inhibition

Source: patent US20140364454A1, “METAL-CHELATING COMPOUNDS HAVING AT LEAST ONE POLYAMINO CHAIN” (UNIVERSITE DE RENNES I, priority 2011, published 2014)
